Measurements as given in the supplement of paper PMC11061612.

Tests used:
Capivasertib = compound: C1CN(CCC1(C(=O)N[C@@H](CCO)C2=CC=C(C=C2)Cl)N)C3=NC=NC4=C3C=CN4 [Capivasertib]; details: max 10 µM
Summary of the method: (§1)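 Viability was measured with CellTiter-Glo 2.0 luminescence after 72 hours of dosing at a final DMSO of typically 0.2%, and scaled between blank-well and DMSO-well means. Beforehand, cancer cell lines sat 24 hours at 37°C and 5% CO2 in 1536-well plates in 7.5 μl DMEM/F12 or RPMI with 10% FBS. A non-linear mixed effects model fitted two-parameter logistic curves to the dose responses. The single-agent IC50 comes from these fits.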

AZD1775 = compound: C=CCn1c(=O)c2cnc(Nc3ccc(N4CCN(C)CC4)cc3)nc2n1-c1cccc(C(C)(C)O)n1 [AZD1775]
Summary of the method: as §1

Trametinib = compound: CC(=O)Nc1cccc(-n2c(=O)n(C3CC3)c(=O)c3c(Nc4ccc(I)cc4F)n(C)c(=O)c(C)c32)c1 [Trametinib]; details: max 1 µM
Summary of the method: as §1

Palbociclib = compound: CC(=O)c1c(C)c2cnc(Nc3ccc(N4CCNCC4)cn3)nc2n(C2CCCC2)c1=O [Palbociclib]; details: max 10 µM
Summary of the method: as §1

AZD1390 = compound: CC(C)n1c(=O)n(C)c2cnc3cc(F)c(-c4ccc(OCCCN5CCCCC5)nc4)cc3c21 [AZD1390]; details: max 0.3 µM
Summary of the method: as §1

Venetoclax = compound: CC1(C)CCC(CN2CCN(c3ccc(C(=O)NS(=O)(=O)c4ccc(NCC5CCOCC5)c([N+](=O)[O-])c4)c(Oc4cnc5[nH]ccc5c4)c3)CC2)=C(c2ccc(Cl)cc2)C1 [Venetoclax]; details: max 1 µM
Summary of the method: as §1

Dasatinib = compound: CC1=C(C(=CC=C1)Cl)NC(=O)C2=CN=C(S2)NC3=CC(=NC(=N3)C)N4CCN(CC4)CCO [Dasatinib]; details: max 2 µM
Summary of the method: as §1

SG3199 = compound: CC1=CN2[C@@H](C1)C=NC3=CC(=C(C=C3C2=O)OC)OCCCCCOC4=C(C=C5C(=C4)N=C[C@@H]6CC(=CN6C5=O)C)OC [SG3199]; details: max 0.001 µM
Summary of the method: as §1

AZD2811 = compound: CCN(CCO)CCCOc1ccc2c(Nc3cc(CC(=O)Nc4cccc(F)c4)[nH]n3)ncnc2c1 [AZD2811]; details: max 1 µM
Summary of the method: as §1

SN-38 = compound: CCc1c2c(nc3ccc(O)cc13)-c1cc3c(c(=O)n1C2)COC(=O)[C@]3(O)CC [SN-38]; details: max 0.3 µM
Summary of the method: as §1

AZD0156 = compound: CN(C)CCCOc1ccc(-c2ccc3ncc4c(c3c2)n(C2CCOCC2)c(=O)n4C)cn1 [AZD0156]
Summary of the method: as §1

AZD4320 = compound: CN(CC[C@H](CSC1=CC=CC=C1)NC2=C(C=C(C=C2)S(=O)(=O)NC(=O)C3=CC=C(C=C3)N4CCC(CC4)[C@H](C5=CC=CC=C5C6=CC=C(C=C6)Cl)O)S(=O)(=O)C(F)(F)F)CCO [AZD4320]; details: max 1 µM
Summary of the method: as §1

Alisertib = compound: COc1cc(Nc2ncc3c(n2)-c2ccc(Cl)cc2C(c2c(F)cccc2OC)=NC3)ccc1C(=O)O [Alisertib]; details: max 10 µM
Summary of the method: as §1

Gefitinib = compound: COc1cc2ncnc(Nc3ccc(F)c(Cl)c3)c2cc1OCCCN1CCOCC1 [Gefitinib]; details: max 10 µM
Summary of the method: as §1

Prexasertib = compound: COc1cccc(OCCCN)c1-c1cc(Nc2cnc(C#N)cn2)n[nH]1 [Prexasertib]; details: max 1 µM
Summary of the method: as §1

Doxorubicin = compound: COc1cccc2c1C(=O)c1c(O)c3c(c(O)c1C2=O)C[C@@](O)(C(=O)CO)C[C@@H]3O[C@H]1C[C@H](N)[C@H](O)[C@H](C)O1 [Doxorubicin]; details: max 1 µM
Summary of the method: as §1

AZD5153 = compound: COc1nnc2ccc(N3CCC(c4ccc(OCCN5CCN(C)C(=O)[C@H]5C)cc4)CC3)nn12 [AZD5153]; details: max 1 µM
Summary of the method: as §1

Lapatinib = compound: CS(=O)(=O)CCNCc1ccc(-c2ccc3ncnc(Nc4ccc(OCc5cccc(F)c5)c(Cl)c4)c3c2)o1 [Lapatinib]; details: max 10 µM
Summary of the method: as §1

AZD8186 = compound: C[C@@H](Nc1cc(F)cc(F)c1)c1cc(C(=O)N(C)C)cc2c(=O)cc(N3CCOCC3)oc12 [AZD8186]; details: max 3 µM
Summary of the method: as §1

Crizotinib = compound: C[C@@H](Oc1cc(-c2cnn(C3CCNCC3)c2)cnc1N)c1c(Cl)ccc(F)c1Cl [Crizotinib]; details: max 10 µM
Summary of the method: as §1

Savolitinib = compound: C[C@@H](c1ccc2nccn2c1)n1nnc2ncc(-c3cnn(C)c3)nc21 [Savolitinib]; details: max 1 µM
Summary of the method: as §1

AZD6738 = compound: C[C@@H]1COCCN1C2=NC(=NC(=C2)C3(CC3)[S@](=N)(=O)C)C4=C5C=CNC5=NC=C4 [AZD6738]; details: max 10 µM
Summary of the method: as §1

AZD5991 = compound: Cc1c2c(nn1C)CSCc1cc(n(C)n1)CSc1cc(c3ccccc3c1)OCCCc1c(C(=O)O)n(C)c3c-2c(Cl)ccc13 [AZD5991]; details: max 1 µM
Summary of the method: as §1

AZD7648 = compound: Cc1cc2ncnn2cc1Nc1ncc2c(n1)n(C1CCOCC1)c(=O)n2C [AZD7648]; details: max 10 µM
Summary of the method: as §1

Taselisib = compound: Cc1nc(-c2cn3c(n2)-c2ccc(-c4cnn(C(C)(C)C(N)=O)c4)cc2OCC3)n(C(C)C)n1 [Taselisib]; details: max 10 µM
Summary of the method: as §1

Selumetinib = compound: Cn1cnc2c(F)c(Nc3ccc(Br)cc3Cl)c(C(=O)NOCCO)cc21 [Selumetinib]; details: max 10 µM
Summary of the method: as §1

Olaparib = compound: O=C(c1cc(Cc2n[nH]c(=O)c3ccccc23)ccc1F)N1CCN(C(=O)C2CC2)CC1 [Olaparib]; details: max 10 µM
Summary of the method: as §1

MK-2206 = compound: NC1(c2ccc(-c3nc4ccn5c(=O)[nH]nc5c4cc3-c3ccccc3)cc2)CCC1 [MK-2206]; details: max 10 µM
Summary of the method: as §1

Cell Line | IC50, cell viability 72 h (Capivasertib) [nM] | IC50, cell viability 72 h (AZD1775; max 3 µM) [nM] | IC50, cell viability 72 h (Trametinib) [nM] | IC50, cell viability 72 h (Palbociclib) [nM] | IC50, cell viability 72 h (AZD1390) [nM] | IC50, cell viability 72 h (Venetoclax) [nM] | IC50, cell viability 72 h (Dasatinib) [nM] | IC50, cell viability 72 h (SG3199) [nM] | IC50, cell viability 72 h (AZD2811) [nM] | IC50, cell viability 72 h (SN-38) [nM] | IC50, cell viability 72 h (AZD0156; max 3 µM) [nM] | IC50, cell viability 72 h (AZD4320) [nM] | IC50, cell viability 72 h (Alisertib) [nM] | IC50, cell viability 72 h (Gefitinib) [nM] | IC50, cell viability 72 h (Prexasertib) [nM] | IC50, cell viability 72 h (Doxorubicin) [nM] | IC50, cell viability 72 h (AZD5153) [nM] | IC50, cell viability 72 h (Lapatinib) [nM] | IC50, cell viability 72 h (AZD8186) [nM] | IC50, cell viability 72 h (Crizotinib) [nM] | IC50, cell viability 72 h (Savolitinib) [nM] | IC50, cell viability 72 h (AZD6738) [nM] | IC50, cell viability 72 h (AZD5991) [nM] | IC50, cell viability 72 h (AZD7648) [nM] | IC50, cell viability 72 h (Taselisib) [nM] | IC50, cell viability 72 h (Selumetinib) [nM] | IC50, cell viability 72 h (Olaparib) [nM] | IC50, cell viability 72 h (AZD1775; max 1 µM) [nM] | IC50, cell viability 72 h (AZD0156; max 1 µM) [nM] | IC50, cell viability 72 h (MK-2206) [nM]
WM35 (Melanoma) | > 10000 | > 3000 | 16.6 | > 10000 | > 300 | > 1000 | > 2000 | > 1 | > 1000 | 210 | > 3000 | > 1000 | > 10000 | > 10000 | 134 | > 1000 | > 1000 | > 10000 | > 3000 | > 10000 | > 1000 | > 10000 | > 1000 | > 10000 | > 10000 | 1090 | > 10000 | – | – | –
NCI-H1963 (Small Cell Lung Carcinoma) | > 10000 | – | > 1000 | 6900 | > 300 | 614 | > 2000 | > 1 | 36.1 | 36.7 | – | 15.2 | 208 | > 10000 | 44.3 | 830 | 99.3 | > 10000 | > 3000 | 3040 | > 1000 | 2730 | > 1000 | > 10000 | 9650 | 8820 | > 10000 | 525 | > 1000 | –
NCI-H596 (Other Solid Carcinomas) | > 10000 | 1450 | > 1000 | > 10000 | > 300 | > 1000 | > 2000 | > 1 | > 1000 | > 300 | > 3000 | > 1000 | > 10000 | > 10000 | 866 | > 1000 | 301 | > 10000 | > 3000 | > 10000 | > 1000 | > 10000 | > 1000 | > 10000 | 4950 | > 10000 | > 10000 | – | – | > 10000
P30-OHK (B-Lymphoblastic Leukemia) | > 10000 | 660 | > 1000 | > 10000 | > 300 | > 1000 | > 2000 | > 1 | 37.9 | 9.37 | > 3000 | 173 | 231 | > 10000 | 20.5 | 202 | 63.3 | > 10000 | > 3000 | 2780 | > 1000 | 3470 | 835 | > 10000 | 6340 | > 10000 | > 10000 | – | – | –
MOLT-13 (T-Lymphoblastic Leukemia) | > 10000 | 440 | 459 | 5570 | > 300 | 416 | > 2000 | > 1 | 42.7 | 3.85 | > 3000 | 33.8 | 177 | > 10000 | 16.5 | 467 | 35.7 | 5860 | > 3000 | 4260 | > 1000 | 2370 | 52.8 | > 10000 | > 10000 | 5270 | > 10000 | – | – | –
PL4 (Pancreatic Carcinoma) | > 10000 | 1360 | 106 | > 10000 | > 300 | > 1000 | 634 | > 1 | > 1000 | 43.5 | > 3000 | > 1000 | 8070 | > 10000 | 117 | > 1000 | 969 | > 10000 | > 3000 | > 10000 | > 1000 | 6410 | > 1000 | > 10000 | 2260 | > 10000 | > 10000 | – | – | –
CL-11 (Colorectal Carcinoma) | > 10000 | 859 | 33.5 | > 10000 | > 300 | > 1000 | > 2000 | > 1 | > 1000 | 57.9 | > 3000 | > 1000 | 527 | > 10000 | 90.3 | > 1000 | 224 | > 10000 | > 3000 | > 10000 | > 1000 | 3040 | > 1000 | > 10000 | > 10000 | 1060 | > 10000 | – | – | –
T47D (Breast Carcinoma) | > 10000 | > 3000 | > 1000 | > 10000 | > 300 | > 1000 | > 2000 | > 1 | > 1000 | 104 | > 3000 | > 1000 | > 10000 | > 10000 | > 1000 | > 1000 | > 1000 | > 10000 | > 3000 | > 10000 | > 1000 | > 10000 | > 1000 | > 10000 | 776 | > 10000 | > 10000 | – | – | –
